Assay results published in patent US7786071B2 (priority 2003, dated 2010).
“And” between values parts separate entries of the source, which are not always exact repeats. Identical values can stand only once.

Columns and labels:
rePON1 (G3H8) = molecular target: T1, rePON1 (G3H8) (Oryctolagus cuniculus, UniProt P27170, A301G/A320V/A67S/G19R/H177S/I126T/I187A/K138S/K151R/K297E/K93E/L143V/L7P/M130L/M341L/P82S/S101G/V343I); experiment: biochemical
T1 construct: leaving the intact, 355 amino acids, PON1 protein without any additions; made in house; host or cells: E. coli Origami B (DE3), truncated pET32 vector without Trx, His and S tags

[1] = molecular target: T2, HuPON1 purified from serum (Homo sapiens, UniProt P27169); settings: read-out: Ki for 2-hydroxyquinoline inhibition of phenyl acetate hydrolysis by HuPON1 purified from serum; cited from earlier work
T2 construct: measured for hydrolysis of phenylacetate by serum huPON1; host or cells: human serum
T2 sequence (P27169 whole entry): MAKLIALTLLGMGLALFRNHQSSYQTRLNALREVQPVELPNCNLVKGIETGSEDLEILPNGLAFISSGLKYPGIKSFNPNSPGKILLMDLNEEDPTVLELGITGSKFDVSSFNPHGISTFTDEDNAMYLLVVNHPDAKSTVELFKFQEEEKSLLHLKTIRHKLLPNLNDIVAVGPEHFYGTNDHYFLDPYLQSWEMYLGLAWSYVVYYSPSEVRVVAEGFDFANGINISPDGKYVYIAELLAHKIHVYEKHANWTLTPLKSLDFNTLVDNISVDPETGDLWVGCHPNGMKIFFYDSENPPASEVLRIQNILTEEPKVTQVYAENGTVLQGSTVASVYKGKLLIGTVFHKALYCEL

T1 sequence (P27170 with tags, fused parts or gaps with the stated changes): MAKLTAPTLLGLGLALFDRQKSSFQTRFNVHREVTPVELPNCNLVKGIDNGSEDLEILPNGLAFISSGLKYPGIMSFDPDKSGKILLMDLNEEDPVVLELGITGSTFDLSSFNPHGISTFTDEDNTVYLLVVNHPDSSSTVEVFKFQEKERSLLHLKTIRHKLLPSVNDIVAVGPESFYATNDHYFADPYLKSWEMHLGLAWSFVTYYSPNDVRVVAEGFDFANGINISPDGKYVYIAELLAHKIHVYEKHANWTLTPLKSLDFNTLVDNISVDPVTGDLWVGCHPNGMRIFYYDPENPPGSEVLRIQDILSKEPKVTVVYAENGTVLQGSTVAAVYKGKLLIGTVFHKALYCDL

For `Oc1ccc2ccccc2n1` [2-hydroxyquinoline], the Ki (rePON1 (G3H8); Inhibition constant (Ki)) is given as 11 µM and 3 µM and 4.2 µM, the Ki (rePON1 (G3H8); inhibition constants for phenyl-acetate, paraxon and L-HcyT hydrolysis) is given as 3 to 11 µM and the Ki [1] is given as about 5 µM.
